Test results taken from US6525058B1, “Pharmaceutical composition for oral use” (Yamanouchi Pharmaceutical Co., LTD, priority 1999, dated 2003).
Counter-ions that a name gives are not always drawn.

Test: Stability of gantofiban citrate per se and when compounded with common fillers, binders and disintegrating agents
Assay type: physicochemical

With `CCOC(=O)CN1CCN(C[C@@H]2CN(c3ccc(C(N)=NC(=O)OC)cc3)C(=O)O2)CC1` [gantofiban citrate, 1-ethyl methylester 4-[[(5R)-3-[p-(carboxyamidino)phenyl]-2-oxo-5-oxazolidinyl]methyl]-1-piperazineacetate] the “Stability in a preparation containing it” value (compounded with fillers, binders and disintegrating agents (lactose, D-mannitol, finely crystalline cellulose, corn starch etc.)) was “decomposed with a lapse of time” and the “Stability of the substance per se” value (gantofiban citrate alone) was “stable substance”.
